# Source: patent publication US20260355328A1, “A complex comprising a cargo and a targeting moiety binding intelectin-1” (Stichting Radboud universitair medisch centrum, priority 2022, published 2026)
# Experiments:
# [1] = system: heparan sulphate on mGEnC; assay: Peptide uptake by mGEnC after removal of heparan sulphate (heparinases); format: cell-based, mouse; conditions: 5 μM, FIG. 1D
# Description: (D) Digestion of heparan sulphate from the cell surface has a limited effect on the uptake of lactoferrin-derived peptides (5 μM). Percentage of uptake for heparan sulphate-cleaved compared to undigested cells is shown.
# (§1) Conditionally immortalized mouse glomerular endothelial cells (mGEnC) were cultured as previously described (Rops et al. Kidney Int. 2004; 66 (6): 2193-201). HeLa cells were employed as a frequently used model cell line and were cultured in DMEM/F12 medium containing 10% fetal calf serum (FCS). For studying uptake, cells were incubated in their respective medium with 10% FCS containing fluorescein-labelled peptides at the indicated concentrations for 20 minutes at 37 °C. In some cases, cells were activated for 16 hours with 10 ng/ml mouse TNFα (Sigma), or co-incubated with Alexa Fluor 633-labeled transferrin (Invitrogen Molecular Probes). Subsequently, cells were washed with PBS and analysed using confocal laser-scanning microscopy on a TCS SP5 confocal microscope (Leica Microsystems), or detached by trypsin/EDTA and analysed on a FACSCalibur Flow cytometer (BD Biosciences) by measuring 20,000 cells.
# In order to further substantiate that uptake of hLF occurred by a mechanism different of the one typically observed for CPPs, we addressed the role of heparan sulphate proteoglycans (HSPGs).
# [2] = system: heparan sulphate proteoglycans (HSPGs); conditions: HeLa cells, literature; cited from earlier work
# [3] = system: mouse glomerular endothelial cells (mGEnC); assay: Uptake of fluorescein-labelled peptides by mGEnC (flow cytometry); format: cell-based; conditions: different concentrations, 20 minutes at 37 °C, FIG. 1A
# Description: as §1
# [4] = target: T1, ITLN-1 (Mus musculus, UniProt O88310); assay: Uptake by mGEnC after downregulation of ITLN-1 with siRNA; format: cell-based; conditions: peptides at 5 μM, FIG. 2E
# T1 construct: ITLN-1 siRNA versus control siRNA
# Description: (§2) Conditionally immortalized mouse glomerular endothelial cells (mGEnC) were cultured as previously described (Rops et al. Kidney Int. 2004; 66 (6): 2193-201). Cells were incubated in their respective medium with 10% FCS containing fluorescein-labelled peptides at 5 μM for 20 minutes at 37 °C. In some cases, cells were activated for 16 hours with 10 ng/ml mouse TNFα (Sigma), or co-incubated with 100 μg/ml Alexa Fluor 633-labeled transferrin (Invitrogen Molecular Probes). Pre-treatment with ITLN-1 or control siPool siRNA (siTools Biotech) was performed according to the manufacturer's protocol. Subsequently, cells were detached with trypsin/EDTA and analysed by flow cytometry on a FACSCalibur Flow cytometer (BD Biosciences). For immunostaining, cells or 5-μm cryosections of mouse kidney were fixed for 10 minutes with 4% paraformaldehyde, and in the indicated cases permeabilized with 0.3% Triton X-100 in PBS. Subsequently, cells and cryosections were stained for 1 hour with anti-intelectin-1 (R&D Systems) or anti-LRP-1 (Abcam) antibodies, and after washing incubated for 1 hour with the appropriate Alexa Fluor-labelled secondary antibody (Invitrogen Molecular Probes). Cells and cryosections were analyzed by confocal laser-Scanning microscopy was performed using a TCS SP5 confocal microscope (Leica Microsystems).
# [5] = system: Podocytes; assay: Uptake in multiple cell lines (Table 2): Podocytes; format: cell-based; conditions: fluorescein-labeled peptide, confocal microscopy, Podocytes (mouse)
# Description: as §1
# as §2, with “Subsequently, cells and cryosections were stained for 1 hour with anti-intelectin-1 (R&D Systems) or anti-LRP-1 (Abcam) antibodies, and after washing incubated for 1 hour with the appropriate Alexa Fluor-labelled secondary antibody (Invitrogen Molecular Probes).” left out
# [6] = system: mGEnC; assay: Uptake in multiple cell lines (Table 2): mGEnC; format: cell-based; conditions: fluorescein-labeled peptide, confocal microscopy, mGEnC (mouse)
# Description: as §1
# as §2, with “Subsequently, cells and cryosections were stained for 1 hour with anti-intelectin-1 (R&D Systems) or anti-LRP-1 (Abcam) antibodies, and after washing incubated for 1 hour with the appropriate Alexa Fluor-labelled secondary antibody (Invitrogen Molecular Probes).” left out
# [7] = system: HUVEC; assay: Uptake in multiple cell lines (Table 2): HUVEC; format: cell-based; conditions: fluorescein-labeled peptide, confocal microscopy, HUVEC (human)
# [8] = system: HeLa cells; assay: Uptake of fluorescein-labelled peptides by HeLa cells (flow cytometry); format: cell-based, human; conditions: FIG. 1B
# Description: as §1
# [9] = system: mGEnC treated with TNFα; assay: Uptake by mGEnC after activation with TNFα; format: cell-based; conditions: 10 ng/ml mouse TNFα 16 hours
# Description: as §1, §2
# [10] = system: hGEnC; assay: Uptake in multiple cell lines (Table 2): hGEnC; format: cell-based; conditions: fluorescein-labeled peptide, confocal microscopy, hGEnC (human)
# [11] = Proteolytic breakdown and serum protein binding of the peptides; format: in vitro ADME
# [12] = system: mGEnC; assay: Intracellular localization / co-localization with transferrin in mGEnC (confocal microscopy); format: cell-based, mouse; conditions: FIG. 2C
# Description: as §1
# Conditionally immortalized mouse glomerular endothelial cells (mGEnC) were cultured as previously described (Rops et al. Kidney Int. 2004; 66 (6): 2193-201). […] Subsequently, cells were detached with trypsin/EDTA and analysed by flow cytometry on a FACSCalibur Flow cytometer (BD Biosciences). […] Cells and cryosections were analyzed by confocal laser-Scanning microscopy was performed using a TCS SP5 confocal microscope (Leica Microsystems).
# [13] = system: HeLa; assay: Uptake in multiple cell lines (Table 2): HeLa; format: cell-based; conditions: fluorescein-labeled peptide, confocal microscopy, HeLa (human)
# Description: as §1
# as §2, with “Subsequently, cells and cryosections were stained for 1 hour with anti-intelectin-1 (R&D Systems) or anti-LRP-1 (Abcam) antibodies, and after washing incubated for 1 hour with the appropriate Alexa Fluor-labelled secondary antibody (Invitrogen Molecular Probes).” left out
# [14] = system: EOMA; assay: Uptake in multiple cell lines (Table 2): EOMA; format: cell-based; conditions: fluorescein-labeled peptide, confocal microscopy, EOMA (mouse)
# [15] = Biodistribution of Cy5.5-hLF in LPS-induced inflammation mouse model; format: in vivo, C57BI/6 mice
# Description: At the start, 8- to 10-week-old C57BI/6 mice (Charles River) received an intraperitoneal injection with either 100 μl of 2 mg/kg LPS in 5% glucose solution, or only 5% glucose solution. After 24 hours, mice were injected with 50 μl of 200 μM Cy5.5-labelled peptide. Assuming a blood volume of 1.2 ml this would theoretically result in a concentration of ~8.5 μM in the circulation. After 4 hours, organs were perfused with phosphate buffer, followed by 4% PFA. Organs were removed and peptide distribution was analysed using the In Vivo Imaging System (IVIS; Perkin Elmer). Organs were then fixed by overnight incubation in 4% PFA, followed by overnight incubation in 30% sucrose. Subsequently, organs were frozen for analysis by confocal laser-Scanning microscopy using a TCS SP5 confocal microscope (Leica Microsystems). Glomerular and tubular regions were selected in microscopical pictures from which the mean fluorescence intensity was determined by ImageJ software.
# [16] = Biodistribution of 111In-DOTA-labelled hLF after intravenous injection in healthy mice; format: in vivo, C57BI/6 mice; conditions: i.v.
# Description: Female and male 10-12-weeks-old C57BI/6 mice (Charles River) were injected via the tail vein with 50 μl of 200 μM 111 In-DOTA-labelled hLF peptide. Assuming a blood volume of 1.2 ml this would theoretically result in a concentration of ~8.5 μM in the circulation. Urine, blood and organs were collected 4 hours after injection, and radioactivity was measured in a gamma-counter. The percentage injected dose per gram of tissue (% ID/gram) was calculated for each tissue along with % of the absorbed dose.
# [17] = target: T1, ITLN-1; assay: ITLN-1 protein expression in mGEnC; format: cell-based; conditions: 10 ng/ml TNFα, FIG. 2B
# Description: as §2
# [18] = Biodistribution of full-length lactoferrin, lactoferricin and hLF-6 in LPS-challenged mice (IVIS); format: in vivo; conditions: fluorescent label, i.v., 2 h
# Description: Lactoferrin and lactoferricin are cloned in an expression plasmid containing the C-terminal Sortase-sequence protein-LPETG-HHHHHH. LPETGHHHHHH is SEQ ID NO: 98. Next, the protein is expressed overnight in E. coli and purified from sonicated bacterial cell lysates by Ni-NTA beads using 400 mM imidazole to elute the proteins. After overnight dialysis, full-length lactoferrin and hLF-6 are labelled by means of a Sortase exchange reaction on the C-terminus with a fluorescent dye (Alexa647 or Cy5.5) for 2 h at 4 °C using a fluorescently labelled donor peptide (formula:biotin-GSSG-LPETG-label or biotin-GSSG-LPETG-PEG40k-label) as substrate GSSGLPETG is SEQ ID NO: 99. Excess donor peptide is removed by means of streptavidin binding of the biotin tag on the N-terminus of the donor peptide. Next, the purified labelled protein/peptide is injected into LPS-challenged mice via intravenous injection in the tail vein. Mice are sacrificed after 2 h, and organs harvested for imaging by IVIS. Biodistribution is quantified for each organ, and relative distribution is shown.
# [19] = system: proteoglycans on endothelial and epithelial cells; conditions: literature; cited from earlier work
# T1 sequence (O88310 19-298): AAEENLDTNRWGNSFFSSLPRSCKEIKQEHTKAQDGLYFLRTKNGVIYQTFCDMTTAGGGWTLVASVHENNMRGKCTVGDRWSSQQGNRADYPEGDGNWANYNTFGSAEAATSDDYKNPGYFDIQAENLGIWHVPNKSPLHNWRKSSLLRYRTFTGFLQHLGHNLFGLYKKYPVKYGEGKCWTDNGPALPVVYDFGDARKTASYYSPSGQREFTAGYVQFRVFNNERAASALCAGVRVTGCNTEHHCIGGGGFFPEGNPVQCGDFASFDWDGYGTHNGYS
substance,measurement,setting,value
"KCFQWQRNMRKVRGPPVSCIKR [hLF, lactoferrin-derived 22-amino acid peptide]",decrease in uptake after removal of heparan sulphate,[1],~ 20%
same,dependence of uptake on HSPG,[2],depends on the presence of HSPG
same,uptake in mGEnC,[3],much more efficient dose-dependent uptake
same,uptake after ITLN-1 siRNA compared to control siRNA,[4],reduced uptake
same,Uptake (Table 2),[5],High
same,Uptake (Table 2),[6],High
same,Uptake (Table 2),[7],High
same,uptake in HeLa cells,[8],show uptake
same,effect of TNFα treatment on uptake,[9],increased uptake
same,increase of uptake after TNFα treatment,"[9]; 5 μM, FIG. 1E",50-100%
same,Uptake (Table 2),[10],High
same,binding to serum proteins as reason for preferential uptake by mGEnC,[11],"not due to a difference in proteolytic breakdown of the peptides before uptake, or a difference in the binding to serum proteins"
same,proteolytic breakdown as reason for preferential uptake by mGEnC,[11]; before uptake,not due to a difference in proteolytic breakdown
same,co-localization with fluorescently-labelled transferrin,[12],co-localized completely
same,Uptake (Table 2),[13],High
same,Uptake (Table 2),[14],High
same,"signal in spleen, heart, eyes, brain and lymph nodes","[15]; IVIS, LPS-treated and non-treated mice",virtually undetectable
same,tubular uptake of non-conjugated / free peptide,[15]; i.v. injection in mice,tubular uptake
same,biodistribution (main organ),"[16]; 111In-DOTA-labelled, 4 hours, FIG. 3A",predominantly located in the kidney
same,concentration in the blood after 4 hours,[16],< 1%
same,absorbed dose in kidney and liver combined of total dose in all the organs,[16]; 4 hours,more than 90%
same,"distribution to other organs including intestines, skin and heart, fold lower",[16]; 4 hours,more than 20 fold
same,"distribution to the liver, fold lower than kidney",[16]; 4 hours,approximately 2 fold
same,"kidney targeting, female versus male mice",[16]; 4 hours,No significant differences
same,"peptide concentration in spleen and lungs, fold lower than kidney",[16]; 4 hours,5-10 fold
TNFα,ITLN-1 expression after activation,[17],augmented ITLN-1 expression
lactoferricin,bio-distribution,[18],"accumulation predominantly in liver and spleen and less in kidney, brain and intestine"
same,binding to proteoglycans,[19],bind to proteoglycans on endothelial and epithelial cells
